According to ChEMBL document CHEMBL1275266, “Synthesis, cytotoxic activities and DNA binding properties of β-carboline derivatives” (Eur J Med Chem, 2010):
Active and inactive are the calls of the source. The rule behind the calls is not given here.

Assays:
769-P = experiment: Cytotoxicity against human 769-P cells by MTT assay; format: functional, cell-based
KB = experiment: Cytotoxicity against human KB cells by MTT assay; format: functional, cell-based
BGC-823 = experiment: Cytotoxicity against human BGC823 cells by MTT assay; format: functional, cell-based
786-0 = experiment: Cytotoxicity against human 786-0 cells by MTT assay; format: functional, cell-based
HepG2 = experiment: Cytotoxicity against human HepG2 cells by MTT assay; format: functional, cell-based
A-375 = experiment: Cytotoxicity against human A375 cells by MTT assay; format: functional, cell-based
HT-29 = experiment: Cytotoxicity against human HT-29 cells by MTT assay; format: functional, cell-based
OS-RC-2 = experiment: Cytotoxicity against human OS-RC2 cells by MTT assay; format: functional, cell-based
CWR22R = experiment: Cytotoxicity against human 22Rv1 cells by MTT assay; format: functional, cell-based
MCF7 = experiment: Cytotoxicity against human MCF7 cells by MTT assay; format: functional, cell-based
Calf thymus DNA [1] = experiment: Binding affinity to calf thymus DNA assessed as change in melting temperature at 20 uM by thermal denaturation assay; format: nucleic-acid assay; details: Bos taurus
Calf thymus DNA [2] = experiment: Binding affinity to calf thymus DNA at 20 uM by UV spectroscopy; format: nucleic-acid assay; details: Bos taurus
Calf thymus DNA [3] = experiment: Binding affinity to calf thymus DNA at 10 uM by fluorescence spectroscopy; format: nucleic-acid assay; details: Bos taurus

ΔTm (Calf thymus DNA [1])	Activity (Calf thymus DNA [2])	Activity (Calf thymus DNA [3])	SMILES	IC50 (769-P)	IC50 (KB)	IC50 (BGC-823)	IC50 (786-0)	IC50 (HepG2)	IC50 (A-375)	IC50 (HT-29)	IC50 (OS-RC-2)	IC50 (CWR22R)	IC50 (MCF7)
–	–	–	CCCCn1c2ccccc2c2cc(CNCCCN(C)C)nc(-c3cc(OC)c(OC)c(OC)c3)c21	7.3 µM	33.5 µM	6.8 µM	6 µM	8.2 µM	11 µM	11.3 µM	25.6 µM	10.8 µM	9.3 µM
–	–	–	CCN(CC)CCCCNCc1cc2c3ccccc3n(CCCc3ccccc3)c2c(-c2cc(OC)c(OC)c(OC)c2)n1	3.9 µM	6.9 µM	6.1 µM	5.5 µM	2.1 µM	3.7 µM	7.5 µM	8.7 µM	6.3 µM	5.2 µM
–	–	–	COc1cc(-c2nc(CNCCCN(C)C)cc3c2[nH]c2ccccc23)cc(OC)c1OC	> 50 µM	> 50 µM	> 50 µM	> 50 µM	42.7 µM	> 50 µM	> 50 µM	> 50 µM	> 50 µM	> 50 µM
–	–	–	CCCCn1c2ccccc2c2cc(CNCCN(CC)CC)nc(-c3cc(OC)c(OC)c(OC)c3)c21	14.5 µM	44.9 µM	13.9 µM	13.9 µM	18.6 µM	14.5 µM	> 50 µM	45.4 µM	8.9 µM	> 50 µM
32 °C	–	–	COc1cccc2c1C(=O)c1c(O)c3c(c(O)c1C2=O)C[C@@](O)(C(=O)CO)C[C@@H]3O[C@H]1C[C@H](N)[C@H](O)[C@H](C)O1	–	–	–	–	–	–	–	–	–	–
–	–	–	COc1cc(-c2nc(CNCCCN(C)C)cc3c4ccccc4n(CCCc4ccccc4)c23)cc(OC)c1OC	10.4 µM	4.4 µM	8.5 µM	6 µM	3.9 µM	3.7 µM	7.9 µM	9.4 µM	10 µM	6.7 µM
–	–	–	CCN(CC)CCCCNCc1cc2c3ccccc3n(C)c2c(-c2cc(OC)c(OC)c(OC)c2)n1	19.1 µM	42.8 µM	46.3 µM	20.7 µM	7.1 µM	> 50 µM	> 50 µM	> 50 µM	> 50 µM	36.5 µM
–	–	–	COc1cc(-c2nc(CNCCCN(C)C)cc3c4ccccc4n(C)c23)cc(OC)c1OC	> 50 µM	> 50 µM	> 50 µM	30.2 µM	15.4 µM	> 50 µM	> 50 µM	> 50 µM	> 50 µM	17.1 µM
14.6 °C	Active	Active	CCN(CC)CCCNCc1cc2c3ccccc3n(CCCc3ccccc3)c2c(-c2cc(OC)c(OC)c(OC)c2)n1	2.7 µM	6.5 µM	5.9 µM	4.7 µM	1.7 µM	2.6 µM	5.9 µM	8.3 µM	7 µM	4.9 µM
–	–	–	CCN(CC)CCNCc1cc2c3ccccc3n(C)c2c(-c2cc(OC)c(OC)c(OC)c2)n1	> 50 µM	> 50 µM	> 50 µM	33.7 µM	14.8 µM	> 50 µM	> 50 µM	> 50 µM	> 50 µM	> 50 µM
–	–	–	CCCCn1c2ccccc2c2cc(CNCCCCN(CC)CC)nc(-c3cc(OC)c(OC)c(OC)c3)c21	11.6 µM	7.6 µM	19.2 µM	11 µM	2.5 µM	11 µM	19.8 µM	28.7 µM	8.5 µM	5.3 µM
14.8 °C	Active	Active	CCCCn1c2ccccc2c2cc(CNCCCN(CC)CC)nc(-c3cc(OC)c(OC)c(OC)c3)c21	7.5 µM	37.3 µM	6.1 µM	7.7 µM	8.5 µM	11.3 µM	14 µM	25.7 µM	4.2 µM	6.8 µM
–	–	–	CC(=O)O[C@H]1C(=O)[C@@]2(C)[C@H]([C@H](OC(=O)c3ccccc3)[C@]3(O)C[C@H](OC(=O)[C@H](O)[C@@H](NC(=O)c4ccccc4)c4ccccc4)C(C)=C1C3(C)C)[C@]1(OC(C)=O)CO[C@@H]1C[C@@H]2O [PACLITAXEL]	–	0.08 µM	1.5 µM	< 0.08 µM	< 0.08 µM	–	–	< 0.08 µM	–	–
17.3 °C	Active	Active	CCN(CC)CCCNCc1cc2c3ccccc3n(C)c2c(-c2cc(OC)c(OC)c(OC)c2)n1	34.6 µM	29 µM	48.5 µM	12.1 µM	8.2 µM	48.4 µM	43.1 µM	> 50 µM	> 50 µM	28.3 µM
–	–	–	CCN(CC)CCNCc1cc2c3ccccc3n(CCCc3ccccc3)c2c(-c2cc(OC)c(OC)c(OC)c2)n1	3 µM	2.5 µM	2.7 µM	3.4 µM	3.8 µM	12 µM	10.9 µM	3 µM	18.9 µM	8.1 µM
24.8 °C	–	–	CCN(CC)CCCNCc1cc2c([nH]c3ccccc32)c(-c2cc(OC)c(OC)c(OC)c2)n1	> 50 µM	> 50 µM	> 50 µM	> 50 µM	39.6 µM	> 50 µM	> 50 µM	46.8 µM	> 50 µM	> 50 µM
